Reference: ChEMBL document CHEMBL1201862, “PubChem BioAssay data set” (2004)
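Following 48 hours of exposure in 96-well plates, responses at five concentrations were used to interpolate endpoints linearly. GI50 marks 50% less growth.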 Active and inactive are the calls of the source. Cut-off read from the data, not from the text of the source: active = GI50 up to about 1.1 µM and inactive = higher.

Assays:
Test in all cases: NCI-60 cell line screen, 48 h
[1] = test system: A498
[2] = test system: A549
[3] = test system: ACHN
[4] = test system: CAKI-1
[5] = test system: CCRF-CEM
[6] = test system: COLO 205
[7] = test system: DLD-1
[8] = test system: DMS-114
[9] = test system: EKVX
[10] = test system: HCC 2998
[11] = test system: HCT-116
[12] = test system: HCT-15
[13] = test system: HL-60
[14] = test system: HOP-18
[15] = test system: HOP-62
[16] = test system: HT-29
[17] = test system: IGROV-1
[18] = test system: K562
[19] = test system: KM-20L2
[20] = test system: KM12
[21] = test system: LOX IMVI
[22] = test system: LXFL 529
[23] = test system: M14
[24] = test system: M19-MEL
[25] = test system: MOLT-4
[26] = test system: Malme-3M
[27] = test system: NCI-H226
[28] = test system: NCI-H460
[29] = test system: NCI-H522
[30] = test system: OVCAR-3
[31] = test system: OVCAR-4
[32] = test system: OVCAR-5
[33] = test system: OVCAR-8
[34] = test system: RPMI-8226
[35] = test system: SF-268
[36] = test system: SF-295
[37] = test system: SF-539
[38] = test system: SK-MEL-2
[39] = test system: SK-OV-3
[40] = test system: SN12C
[41] = test system: SNB-19
[42] = test system: SNB-75
[43] = test system: SNB-78
[44] = test system: SW-620
[45] = test system: UACC-257
[46] = test system: UACC-62
[47] = test system: UO-31
[48] = test system: XF498
[49] = test system: DMS-273
[50] = test system: HOP-92
[51] = test system: MCF7
[52] = test system: NCI-H23
[53] = test system: NCI/ADR-RES
[54] = test system: RXF 393
[55] = test system: SK-MEL-28
[56] = test system: SK-MEL-5
[57] = test system: U-251

**Q.** For `CC(C)N/C(N)=N/C#N`, which GI50 [1] is on record?
**A.** Its GI50 is > 100 µM (inactive).

**Q.** And the GI50 [2]?
**A.** The GI50 was > 100 µM (inactive).

**Q.** And the GI50 [3]?
**A.** Its GI50 is > 100 µM (inactive).

**Q.** And the GI50 [4]?
**A.** Its GI50 is > 100 µM (inactive).

**Q.** What about the GI50 [5] of the same compound?
**A.** Its GI50 is > 100 µM (inactive).

**Q.** What about the GI50 [6] of the same compound?
**A.** Its GI50 is > 100 µM (inactive).

**Q.** And the GI50 [7]?
**A.** The GI50 was > 100 µM (inactive).

**Q.** And the GI50 [8]?
**A.** The GI50 was > 100 µM (inactive).

**Q.** What about the GI50 [9] of the same compound?
**A.** Its GI50 is > 100 µM (inactive).

**Q.** What about the GI50 [10] of the same compound?
**A.** The GI50 was > 100 µM (inactive).

**Q.** And the GI50 [11]?
**A.** The GI50 was > 100 µM (inactive).

**Q.** What about the GI50 [12] of the same compound?
**A.** The GI50 was greater than 100 µM.

**Q.** And the GI50 [13]?
**A.** The GI50 was > 100 µM (inactive).

**Q.** What about the GI50 [14] of the same compound?
**A.** The GI50 was > 100 µM (inactive).

**Q.** And the GI50 [15]?
**A.** Its GI50 is > 100 µM (inactive).

**Q.** And the GI50 [16]?
**A.** The GI50 was > 100 µM (inactive).

**Q.** And the GI50 [17]?
**A.** The GI50 was > 100 µM (inactive).

**Q.** And the GI50 [18]?
**A.** Its GI50 is > 100 µM (inactive).

**Q.** And the GI50 [19]?
**A.** Its GI50 is > 100 µM (inactive).

**Q.** And the GI50 [20]?
**A.** Its GI50 is > 100 µM (inactive).

**Q.** What about the GI50 [21] of the same compound?
**A.** Its GI50 is > 100 µM (inactive).

**Q.** And the GI50 [22]?
**A.** The GI50 was > 100 µM (inactive).

**Q.** What about the GI50 [23] of the same compound?
**A.** The GI50 was > 100 µM (inactive).

**Q.** What about the GI50 [24] of the same compound?
**A.** The GI50 was > 100 µM (inactive).

**Q.** And the GI50 [25]?
**A.** Its GI50 is > 100 µM (inactive).

**Q.** And the GI50 [26]?
**A.** The GI50 was > 100 µM (inactive).

**Q.** And the GI50 [27]?
**A.** Its GI50 is > 100 µM (inactive).

**Q.** What about the GI50 [28] of the same compound?
**A.** The GI50 was > 100 µM (inactive).

**Q.** And the GI50 [29]?
**A.** Its GI50 is > 100 µM (inactive).

**Q.** And the GI50 [30]?
**A.** The GI50 was > 100 µM (inactive).

**Q.** And the GI50 [31]?
**A.** The GI50 was > 100 µM (inactive).

**Q.** What about the GI50 [32] of the same compound?
**A.** The GI50 was > 100 µM (inactive).

**Q.** What about the GI50 [33] of the same compound?
**A.** Its GI50 is > 100 µM (inactive).

**Q.** What about the GI50 [34] of the same compound?
**A.** Its GI50 is > 100 µM (inactive).

**Q.** What about the GI50 [35] of the same compound?
**A.** The GI50 was > 100 µM (inactive).

**Q.** And the GI50 [36]?
**A.** Its GI50 is > 100 µM (inactive).

**Q.** What about the GI50 [37] of the same compound?
**A.** The GI50 was > 100 µM (inactive).

**Q.** And the GI50 [38]?
**A.** Its GI50 is > 100 µM (inactive).

**Q.** What about the GI50 [39] of the same compound?
**A.** The GI50 was > 100 µM (inactive).

**Q.** What about the GI50 [40] of the same compound?
**A.** The GI50 was > 100 µM (inactive).

**Q.** And the GI50 [41]?
**A.** Its GI50 is > 100 µM (inactive).

**Q.** What about the GI50 [42] of the same compound?
**A.** The GI50 was > 100 µM (inactive).

**Q.** And the GI50 [43]?
**A.** The GI50 was > 100 µM (inactive).

**Q.** And the GI50 [44]?
**A.** Its GI50 is > 100 µM (inactive).

**Q.** What about the GI50 [45] of the same compound?
**A.** Its GI50 is > 100 µM (inactive).

**Q.** And the GI50 [46]?
**A.** Its GI50 is > 100 µM (inactive).

**Q.** And the GI50 [47]?
**A.** Its GI50 is > 100 µM (inactive).

**Q.** And the GI50 [48]?
**A.** The GI50 was > 100 µM (inactive).

**Q.** Which results are given for `O=c1oc2cc(O)ccc2c2oc3cc(O)ccc3c12` [COUMESTROL]?
**A.** GI50 [1]: 0.248 µM (active); GI50 [2]: 43.1 µM (inactive); GI50 [4]: 49.9 µM (inactive); GI50 [5]: 8.81 µM (inactive); GI50 [6]: 26 µM (inactive); GI50 [7]: 62.5 µM (inactive); GI50 [8]: 9.89 µM (inactive); GI50 [49]: 54.7 µM (inactive); GI50 [9]: 77.4 µM (inactive); GI50 [10]: 53.6 µM (inactive); GI50 [11]: 32.7 µM (inactive); GI50 [12]: 54.5 µM; GI50 [13]: 6.93 µM (inactive); GI50 [14]: > 125 µM (inactive); GI50 [15]: 16 µM (inactive); GI50 [50]: > 118 µM (inactive); GI50 [16]: 49 µM (inactive); GI50 [17]: 79.8 µM (inactive); GI50 [18]: 74 µM (inactive); GI50 [19]: 41 µM (inactive); GI50 [20]: 111 µM (inactive); GI50 [21]: 42.1 µM (inactive); GI50 [24]: 92.7 µM (inactive); GI50 [51]: 96.8 µM (inactive); GI50 [25]: 13.8 µM (inactive); GI50 [26]: 79.6 µM (inactive); GI50 [27]: 4.18 µM (inactive); GI50 [52]: 58.5 µM (inactive); GI50 [28]: 38.6 µM (inactive); GI50 [29]: 6.46 µM (inactive); GI50 [53]: 108 µM (inactive); GI50 [30]: 45.2 µM (inactive); GI50 [31]: 83.9 µM (inactive); GI50 [32]: > 125 µM (inactive); GI50 [33]: 70 µM (inactive); GI50 [34]: 45.8 µM (inactive); GI50 [54]: 54.1 µM (inactive); GI50 [35]: 53.7 µM (inactive); GI50 [36]: 76 µM (inactive); GI50 [37]: 56.6 µM (inactive); GI50 [55]: > 125 µM (inactive); GI50 [38]: > 125 µM (inactive); GI50 [56]: 9.91 µM (inactive); GI50 [39]: 42.1 µM (inactive); GI50 [40]: 13.2 µM (inactive); GI50 [41]: 47.6 µM (inactive); GI50 [42]: 94.8 µM (inactive); GI50 [43]: 64.4 µM (inactive); GI50 [44]: 59 µM (inactive); GI50 [57]: 33.3 µM (inactive); GI50 [45]: 87.9 µM (inactive); GI50 [46]: 71.6 µM (inactive); GI50 [47]: 48.3 µM (inactive); GI50 [48]: > 19.8 µM (inactive)
